From ChEMBL document CHEMBL1156471, “Targeting host cell furin proprotein convertases as a therapeutic strategy against bacterial toxins and viral pathogens” (J Biol Chem, 2007)

Target: Furin (Homo sapiens, UniProt P09958)
Sequence (P09958 whole entry): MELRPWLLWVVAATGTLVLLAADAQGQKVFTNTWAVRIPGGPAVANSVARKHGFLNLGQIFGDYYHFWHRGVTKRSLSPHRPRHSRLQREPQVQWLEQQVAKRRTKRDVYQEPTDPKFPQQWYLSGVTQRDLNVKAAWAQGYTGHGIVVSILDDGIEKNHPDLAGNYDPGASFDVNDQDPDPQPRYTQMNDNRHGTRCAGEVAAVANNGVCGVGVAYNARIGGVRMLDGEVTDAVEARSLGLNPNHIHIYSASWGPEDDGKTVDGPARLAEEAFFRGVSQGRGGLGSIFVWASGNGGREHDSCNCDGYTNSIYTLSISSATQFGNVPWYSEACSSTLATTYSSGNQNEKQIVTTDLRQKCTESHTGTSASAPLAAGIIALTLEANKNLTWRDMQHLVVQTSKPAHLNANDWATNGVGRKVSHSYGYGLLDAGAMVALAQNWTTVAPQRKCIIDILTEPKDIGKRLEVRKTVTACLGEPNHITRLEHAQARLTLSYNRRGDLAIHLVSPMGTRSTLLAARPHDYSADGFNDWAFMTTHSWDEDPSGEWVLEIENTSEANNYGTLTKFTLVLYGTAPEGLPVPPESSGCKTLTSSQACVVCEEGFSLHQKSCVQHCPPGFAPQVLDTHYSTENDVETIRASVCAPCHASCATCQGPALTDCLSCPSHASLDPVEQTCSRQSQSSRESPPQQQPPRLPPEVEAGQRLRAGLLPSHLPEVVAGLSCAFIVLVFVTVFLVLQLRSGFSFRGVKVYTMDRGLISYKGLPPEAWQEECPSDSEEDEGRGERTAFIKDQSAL

| Substance | Ki [nM] |
| --- | --- |
| H-TPRERARKKR-OH | > 100 |
| H-TPRERARKKRG-NH2 | > 100 |
| H-TPRERARKKRG-OH | > 100 |
| H-TPRERARKKRV-OH | > 100 |
| H-TPRERRAAKR-OH | > 100 |
| H-TPRERRAAKRG-OH | > 100 |
| H-TPRERRAAKRV-OH | > 100 |
| H-TPRERRAKKR-OH | > 100 |
| H-TPRERRAKKRG-NH2 | > 100 |
| H-TPRERRAKKRG-OH | > 100 |
| H-TPRERRAKKRV-OH | > 100 |
| H-TPRERRRAARV-OH | > 100 |
| H-TPRERRRAKR-OH | > 100 |
| H-TPRERRRAKRG-NH2 | > 100 |
| H-TPRERRRAKRG-OH | > 100 |
| H-TPRERRRAKRV-OH | > 100 |
| H-TPRERRRKAA-OH | > 100 |
| H-TPRERRRKAAG-OH | > 100 |
| H-TPRERRRKAAV-OH | > 100 |
| H-TPRERRRKAR-OH | > 100 |

| Substance | Ki [nM] |
| --- | --- |
| H-TPRERRRKARG-NH2 | > 100 |
| H-TPRERRRKARG-OH | > 100 |
| H-TPRERRRKARV-OH | > 100 |
| H-TPRERRRKKA-OH | > 100 |
| H-TPRERRRKKAG-NH2 | > 100 |
| H-TPRERRRKKAG-OH | > 100 |
| H-TPRERRRKKAV-OH | > 100 |
| H-TPRERRRKKR-OH | > 100 |
| H-TPRERRRKKRV-OH | > 100 |
| H-TPRFRRRKKRG-NH2 | > 100 |
| H-TPRFRRRKKRG-OH | > 100 |
| H-TPRGRRRKKRG-NH2 | > 100 |
| H-TPRGRRRKKRG-OH | > 100 |
| H-TPRHRRRKKRG-NH2 | > 100 |
| H-TPRHRRRKKRG-OH | > 100 |
| H-TPRIRRRKKRG-NH2 | > 100 |
| H-TPRIRRRKKRG-OH | > 100 |
| H-TPRLRRRKKRG-NH2 | > 100 |
| H-TPRLRRRKKRG-OH | > 100 |
| H-TPRMRRRKKRG-NH2 | > 100 |

| Substance | Ki [nM] |
| --- | --- |
| H-TPRMRRRKKRG-OH | > 100 |
| H-TPRNRRRKKRG-NH2 | > 100 |
| H-TPRNRRRKKRG-OH | > 100 |
| H-TPRPRRRKKRG-NH2 | > 100 |
| H-TPRPRRRKKRG-OH | > 100 |
| H-TPRQRRRKKRG-NH2 | > 100 |
| H-TPRQRRRKKRG-OH | > 100 |
| H-TPRRRRRKKRG-NH2 | > 100 |
| H-TPRRRRRKKRG-OH | > 100 |
| H-TPRSRRRKKRG-NH2 | > 100 |
| H-TPRSRRRKKRG-OH | > 100 |
| H-TPRTRRRKKRG-NH2 | > 100 |
| H-TPRTRRRKKRG-OH | > 100 |
| H-TPRVRRRKKRG-NH2 | > 100 |
| H-TPRVRRRKKRG-OH | > 100 |
| H-TPRWRRRKKRG-NH2 | > 100 |
| H-TPRWRRRKKRG-OH | > 100 |
| H-TPRYRRRKKRG-NH2 | > 100 |
| H-TPRYRRRKKRG-OH | > 100 |
